According to paper PMC9964544, “Evidence of Insulin-Sensitizing and Mimetic Activity of the Sesquiterpene Quinone Avarone, a Protein Tyrosine Phosphatase 1B and Aldose Reductase Dual Targeting Agent from the Marine Sponge Dysidea avara” (Pharmaceutics, 2023):
Where two headings read alike, the source gives them in different places. Values belong to the compound of their own block, whether it stands above or below them.

Legend:
Human PTP1B [1] = target: T1, Human PTP1B (Homo sapiens, UniProt P18031); design: polyHis (N); made in house; details: cited from earlier work; for IC50: IC50 ± SD
T1 sequence (P18031 1-302): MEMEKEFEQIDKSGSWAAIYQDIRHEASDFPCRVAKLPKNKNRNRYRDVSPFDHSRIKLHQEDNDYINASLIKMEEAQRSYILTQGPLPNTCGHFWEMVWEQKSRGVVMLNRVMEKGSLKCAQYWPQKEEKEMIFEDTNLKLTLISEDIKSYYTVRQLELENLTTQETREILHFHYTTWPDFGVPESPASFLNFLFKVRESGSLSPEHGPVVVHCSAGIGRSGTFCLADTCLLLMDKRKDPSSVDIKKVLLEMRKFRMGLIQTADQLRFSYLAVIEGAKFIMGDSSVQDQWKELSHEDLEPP

human recombinant AKR1B1 [2] = target: T2, human recombinant AKR1B1 (Homo sapiens, UniProt P15121); assay: AKR1B1 inhibition assay with L-idose as substrate, NADPH oxidation (IC50); type: biochemical; details: 10 mU AKR1B1, 1.6 mM L-idose, 37 °C; IC50 ± SD
T2 construct: made in house
Method: (§1) The purification of human recombinant AKR1B1 was performed as previously described. […] The purified enzyme, stored at −80 °C in 10 mM sodium phosphate buffer pH 7.0 containing 2 mM DTT and 30% (w/v) glycerol, was extensively dialyzed against 10 mM sodium phosphate buffer pH 7.0 before use. […] The fractions containing PTP1B were collected, concentrated, and injected into a Superdex G75 column equilibrated with Tris-HCl buffer pH 8.0 containing 150 mM NaCl and 1 mM mercaptoethanol. The fractions containing PTP1B were collected and concentrated; the purity of preparation was evaluated using SDS-PAGE. The PTP1B preparation was split into fractions of 0.5 mL volume; each fraction was stored at −80 °C.
(§2) The standard assay mixture (final volume 0.7 mL) was contained in 0.25 M sodium phosphate buffer pH 6.8, 0.18 mM NADPH, 0.4 M ammonium sulfate, 0.5 mM EDTA, and 4.7 mM GAL. One unit of enzyme activity is the amount of enzyme that catalyzes the conversion of 1 µmol of substrate/min in the above assay conditions. The same assay conditions were adopted in the inhibition studies using L-idose as the substrate at the indicated concentrations. PTP1B activity was determined using p-nitrophenylphosphate (pNPP) as the synthetic substrate. The pNPP was dissolved in 0.075 M ββ-dimethylglutarate buffer, pH 7.0, containing 1 mM dithiothreitol. Each assay was carried out at 37 °C in 1 mL of assay buffer. The reactions were started by diluting an aliquot of PTP1B preparation in the assay buffer; after 30 min, the reactions were stopped by adding 2 mL of 0.2 M KOH solution. The amount of p-nitrophenol released was determined spectrophotometrically, reading the absorbance of solutions at 400 nm (ε400nm = 18 mM^−^1cm^−^1).

Human PTP1B [3] = target: T1, Human PTP1B; assay: PTP1B inhibition assay with pNPP as substrate (IC50); type: biochemical; design: polyHis (N); made in house; details: 2.5 mM pNPP, 37 °C; IC50 ± SD
Method: as §1, §2

C2C12 cells [4] = assay: Glucose uptake assay (2-NBDG, flow cytometry) in C2C12 cells; type: cell-based; details: 2 h 10 mM cytochalasin B
Method: To evaluate the impact of avarone (2) on the insulin signaling pathway, C2C12 cells were plated on P35 dishes and grown until 70% confluence. Then, cells were washed with phosphate-buffered saline (PBS) and incubated for 24 h in the presence of a starvation medium (DMEM high glucose containing 2 mM glutamine, 100 U/mL of penicillin, and 100 μg/mL of streptomycin). After this time, cells were stimulated for 30 min with 10 nM insulin (Humulin R, Ely Lilly, Italy) with avarone (2) or the insulin-avarone combination. After this time, cells were washed with cold PBS and lysed using 100 µL of 1X Laemmli sample buffer solution (50 mM Tris-HCl pH 6.8, 2% SDS, 10% glycerol, 1% β-mercaptoethanol, 12.5 mM EDTA, 0.02% bromophenol blue). Cell proteins were withdrawn, transferred in an Eppendorf tube and boiled for 5 min. All samples were stored at −20 °C before the analysis. Analysis of samples was carried out using SDS-PAGE; after electrophoresis, proteins were transferred on a PVDF membrane by Western blot. Phosphorylation levels of the insulin receptor β chain and of the kinase Akt were evaluated using specific antibodies: IR β subunit, clone CT-3 (MABS65) was from Santa Cruz Biotechnology (Santa Cruz, CA, USA); pIR β subunit, Y1162/1163 (sc-25103-R) was from Merck-Millipore (Burlington, MA, USA). Akt (9272S) and p-Akt (9271S) antibodies were from Cell Signaling Technology (Danvers, MA, USA). Finally, β-actin and clone C-4 (sc-47778) were from Merck-Millipore (Burlington, MA, USA). Anti-rabbit and anti-mouse secondary antibodies were from Santa Cruz Biotechnology (Santa Cruz, CA, USA). Detection was performed using Clarity western ECL substrates (BioRad Laboratories, Inc. 1000 Alfred Nobel DriveHercules, CA, USA). Quantitation of the images obtained was carried out using iBright Analysis Software (Thermo Fisher Scientific 168 Third Avenue Waltham, MA, USA, 02451). Glucose uptake was evaluated as previously described. […] Intrinsic and 2-NBDG-derived cell fluorescences were determined using a flow cytometer (FACSCanto II, BD Biosciences, San Jose, CA, USA). […] Quantitative analysis was carried out using FlowJo software (FlowJo^TM v10. BD FlowJo™ Software for Windows Version 10. Ashland, OR: Becton, Dickinson and Company; 2021).
Figure 8 Glucose uptake assay. […] After, cells were washed with PBS, detached using trypsin, collected by centrifugation, and analyzed using a flow cytometer (FACSCanto II, BD Biosciences). […] For each experiment, 10,000 events were analyzed. […] (B) Quantitation of fluorescence levels. […]
Figure 9 Impact of cytochalasin B on avarone-induced glucose uptake. […] After, cells were washed and incubated for 3 h with 40 µM 2-NBDG and then analyzed using a flow cytometer (FACSCanto II, BD Biosciences). For each experiment, 10,000 events were analyzed. […]

C2C12 cells [5] = assay: Seahorse XFe96 Mito Stress Test in C2C12 cells; type: cell-based; details: affecting maximal respiration and ATP production-linked oxygen consumption
Method: C2C12 cells (3 × 10^4 cells/well) were placed in XFe96 cell culture plates. After 24 h of incubation at 37 °C, cell growth medium was substituted with an XF base medium supplemented with 2 mM glutamine, 1 mM sodium pyruvate, and 10 mM glucose, pH 7.4. The plate was then transferred in a non-CO2 incubator for 1 h at 37 °C to pre-equilibrate the cells before analysis. An XF Mito Stress Test was performed to assay the cells’ ability to exploit mitochondrial oxidative metabolism, according to the manufacturer’s instructions. The oxygen consumption rate (OCR) was evaluated after the injection of a sequence of compounds that interfere with the electron transport chain: oligomycin (1 μM), carbonyl cyanide-4 (trifluoromethoxy) phenylhydrazone (FCCP) (1 μM), and Rotenone/Antimycin A (0.5 μM). All data were normalized on the protein content of each well.
Figure 10 Results of Mito Stress Test assay. (A) C2C12 cells were subjected to Seahorse XFe96-Mito Stress Test analysis to evaluate oxygen consumption rate (OCR) in real time. OCR values were normalized on protein content. (B) Basal respiration, ATP-linked OCR, spare capacity, maximal respiration, and proton leak were calculated using data obtained from OCR plot after the administration of the adenosine triphosphate ATP synthase inhibitor oligomycin, the proton uncoupler carbonylcyanide p-trifluoromethoxyphenylhydrazone (FCCP), and the combination of the respiratory complex I inhibitor rotenone and the respiratory complex III inhibitor antimycin A. Each point reported in the OCR plot represents the medium value ± SEM obtained from independent replicates (n = 3 or 4). One-way ANOVA with Dunnett’s correction was used to assess differences in experimental features by using Prism 8 software (GraphPad). Statistical significance is annotated as follows: * p ≤ 0.01, ** p ≤ 0.001, *** p ≤ 0.0001, (t-test); ns, not significant; FC, fold change.

human recombinant AKR1B1 [6] = target: T2, human recombinant AKR1B1; design: method as in Demir et al. [17]; details: ref Demir et al. [17]; cited from earlier work
3T3-L1 cells = system: 3T3-L1 cells; design: method as in PMID 19262557, PMID 19091557; details: ref [24],[27]; cited from earlier work

Compound: 21-dehydroxybolinaquinone [21-dehydroxybolinaquinone (6)]
IC50 (Human PTP1B [1]; ref Li et al. [27]): 39.5 µM

IC50 (human recombinant AKR1B1 [2]): 73 ± 15 µM
IC50 (Human PTP1B [3]): 15.2 ± 2.1 µM
Compound: CNC1=CC(=O)C=C(C[C@]2(C)[C@@H](C)CC[C@]3(C)C(C)=CCC[C@@H]23)C1=O [3-methylaminoavarone (3), 3-(methylamino)avarone]

Compound: CNC1=CC(=O)C(C[C@]2(C)[C@@H](C)CC[C@]3(C)C(C)=CCC[C@@H]23)=CC1=O [4-methylaminoavarone (4), 4-(methylamino)avarone]
IC50 (human recombinant AKR1B1 [2]): 62 ± 8 µM
IC50 (Human PTP1B [3]): 21.6 ± 1 µM

Compound: C=C1[C@@H](C)[C@H]2[C@H](Cc3ccccc3)NC(=O)[C@]23OC(=O)/C=C/[C@H](O)CCC[C@@H](C)C/C=C/[C@H]3[C@@H]1O [Cytochalasin B, cytochalasin B, reference compound]
effect of preincubation on insulin-stimulated glucose uptake (C2C12 cells [4]; then 10 nM insulin 30 min): strongly affects insulin-stimulated glucose uptake
effect of preincubation on avarone-mediated glucose uptake (C2C12 cells [4]; then 25 µM avarone 30 min): abolishes the avarone-mediated glucose uptake

Compound: N#C/C(=C\c1cn(-c2ccccc2)c2ccccc12)C(=O)O [UK5099, reference compound]
mitochondrial respiration (OCR) (C2C12 cells [5]): significant reduction in mitochondrial respiration

IC50 (human recombinant AKR1B1 [2]): 0.52 ± 0.19 µM
IC50 (Human PTP1B [3]): 42.2 ± 18 µM
Compound: CC1=CCC[C@H]2[C@](C)(Cc3cc(O)ccc3O)[C@@H](C)CC[C@]12C [avarol (1), avarol]

Compound: O=C1C=CC(=O)C=C1 [p-benzoquinone]
IC50 (Human PTP1B [1]; ref Zhang et al. [24]): 38.9 ± 5.2 µM
IC50 (human recombinant AKR1B1 [6]): 1.93 µM

Compound: dysidine [dysidine (5)]
IC50 (Human PTP1B [1]; ref Li et al. [27]): 6.7 ± 0.1 µM
selectivity over other PTPs (TC-PTP and CD45) (Human PTP1B [1]; ref [24],[27]): moderate selectivity
type of PTP1B inhibition (Human PTP1B [1]; ref [24],[27]): reversible slow-binding PTP1B inhibitor
glucose uptake in 3T3-L1 cells (3T3-L1 cells): increase glucose uptake
